Data: PubChem BioAssay (NCI)
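Interpolation was linear, between the two tested concentrations surrounding the appropriate level; five concentrations were tested over 48 hours in 96-well plates. At the TGI there is no net growth.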

Assays:
Assay in all cases: inhibition of tumour cell growth, NCI panel, 48 h
[1] = test system: BT-549 breast
[2] = test system: RXF 393 renal
[3] = test system: HL-60(TB) leukemia
[4] = test system: K-562 leukemia
[5] = test system: A549 NSCLC
[6] = test system: MCF7 breast
[7] = test system: OVCAR-4 ovarian
[8] = test system: OVCAR-8 ovarian
[9] = test system: RPMI-8226 leukemia
[10] = test system: CCRF-CEM leukemia
[11] = test system: ACHN renal
[12] = test system: UO-31 renal
[13] = test system: SK-MEL-2 melanoma
[14] = test system: HOP-62 NSCLC
[15] = test system: IGROV1 ovarian
[16] = test system: UACC-257 melanoma
[17] = test system: OVCAR-5 ovarian
[18] = test system: SR leukemia
[19] = test system: KM12 colon
[20] = test system: MALME-3M melanoma

Row | Structure (SMILES) | TGI [1] | TGI [2] | TGI [3] | TGI [4] | TGI [5] | TGI [6] | TGI [7] | TGI [8] | TGI [9] | TGI [10] | TGI [11] | TGI [12] | TGI [13] | TGI [14] | TGI [15] | TGI [16] | TGI [17] | TGI [18] | TGI [19] | TGI [20]
1 | NC1=Nc2ccccc2Sc2nnc(-c3ccc(Cl)cc3)n21 | > 100 µM | > 100 µM | > 100 µM | 35.7 µM | > 100 µM | > 100 µM | > 100 µM | > 100 µM | > 100 µM | 56.2 µM | > 100 µM | > 100 µM | > 100 µM | 85 µM | > 100 µM | > 100 µM | > 100 µM | > 100 µM | > 100 µM | > 100 µM
2 | Cc1ccc(-c2n[nH]c(=O)[nH]2)cc1 | > 100 µM | > 100 µM | > 100 µM | > 100 µM | > 100 µM | > 100 µM | > 100 µM | > 100 µM | > 100 µM | > 100 µM | > 100 µM | > 100 µM | > 100 µM | > 100 µM | > 100 µM | 98.7 µM | > 100 µM | > 100 µM | > 100 µM | > 100 µM
3 | C1=NCCOCCN=Cc2ccccc2OCc2cccc(n2)COc2ccccc21 | 19.1 µM | > 25 µM | 16.3 µM | > 25 µM | > 25 µM | 19.4 µM | > 25 µM | 16.9 µM | 14 µM | > 25 µM | > 25 µM | > 25 µM | > 25 µM | > 25 µM | > 25 µM | 21.5 µM | > 25 µM | 9.91 µM | > 25 µM | 22.5 µM
